In brackets after ≈: the same amount, converted by molar mass. Several values for one entry are separate records, joined by “and”; a condition that tells them apart may be missing. Identical values can stand only once.
Columns and labels:
E. coli LpxC C63A = target: T1, E. coli LpxC C63A (Escherichia coli, UniProt P0A725, C63A); assay: fluorescence-based E. coli LpxC C63A enzyme inhibition assay; type: biochemical; details: Ki E. coli LpxC C63A, from IC50 via Cheng–Prusoff
T1 construct: made in house; host or cells: E. coli BL21(DE3)
Description: In order to determine the inhibitory activities of the compounds of interest toward E. coli LpxC, a fluorescence-based enzyme assay was deployed, in which the formed deacetylated natural product UDP-3-O-[(R)-3-hydroxymyristoyl]glucosamine (2) is transformed into a fluorescent isoindole with o-phthaldialdehyde and 2-mercaptoethanol.[48],[49] […] The KM of E. coli LpxC C63A was determined experimentally using a mass spectrometry-based LpxC assay (Figure S8, Supporting Information, vide infra).
A fluorescence-based microplate assay for LpxC activity was performed as described by Clements et al.[48] The wells in a black, nonbinding, 96-well fluorescence microplate (Greiner Bio One, Frickenhausen) were filled with 93 μL of 26.9 μM UDP-3-O-[(R)-3-hydroxymyristoyl]-N-acetylglucosamine in assay buffer [40 mM sodium morpholinoethanesulfonic acid (pH 6.0), 80 μM dithiothreitol, 0.02% Brij 35]. In order to assay the inhibitors at final concentrations from 20 nM up to 20 μM, 2 μL of a respective dilution of the compounds in DMSO were added. The addition of 5 μL of a solution of purified LpxC (10 μg mL^–1) in assay buffer led to final concentrations of 25 μM UDP-3-O-[(R)-3-hydroxymyristoyl]-N-acetylglucosamine, 15 nM E. coli LpxC C63A, 2% DMSO, and from 20 nM up to 20 μM inhibitor. The microplate was incubated for 30 min at 37 °C in a plate shaker. Then, the biochemical reaction was stopped by adding 40 μL of 0.625 M sodium hydroxide. The reaction mixture was further incubated for 10 min and neutralized by adding 40 μL of 0.625 M acetic acid. The deacetylated product UDP-3-O-[(R)-3-hydroxymyristoyl]glucosamine was converted into a fluorescing isoindole by adding 120 μL of an o-phthaldialdehyde-2-mercaptoethanol solution, which was prepared by dissolving 10 mg of o-phthaldialdehyde in 1 mL of methanol, diluting the mixture with 24 mL of a sodium borate buffer (0.1 M), and finally adding 2.5 μL of 2-mercaptoethanol.[49] Fluorescence was measured with a TriStar^2 S LB 942 plate reader (Berthold, Bad Wildbad) at 340 nm excitation and 460 nm emission wavelengths. Each assay was performed at least three times on separate days. The IC50 values were calculated via Probit-log concentration graphs with the aid of the software Origin and were subsequently converted into Ki values using the Cheng–Prusoff equation.[75],[76]

E. coli BL21(DE3) [1] = assay: MIC, broth microdilution; type: cell-based; details: 20 h, 37 °C, LB; for MIC: Escherichia coli
Description: (§1) Besides measuring the inhibitory activities toward E. coli LpxC C63A, the antibacterial activities of the synthesized hydroxamic acids were evaluated by determining their minimal inhibitory concentrations (MIC) in broth dilution tests as well as by performing disc diffusion assays (Table 1).
(§2) The MIC values of the compounds were determined by means of the microdilution method using 96-well plates.
(§3) The overnight suspension was diluted 1:1000 in fresh LB. 10 μL of a 2-fold dilution series of the compounds in DMSO and 90 μL of LB were dispensed to each well of a 96-well plate. Then, 100 μL of the inoculated medium was added, resulting in 5 × 10^5 cfu mL^–1, 5% DMSO, and a final concentration range of the test compounds between 64 and 0.016 μg mL^–1. The plates were incubated for 20 h at 37 °C. The MIC was defined as the lowest concentration of the compounds that prevented visible growth after incubation. Each assay was performed at least three times on separate days.

E. coli D22 [2] = assay: MIC, broth microdilution; type: cell-based; details: Escherichia coli, 20 h, 37 °C, LB
Description: as §1, §2, §3

E. coli BL21(DE3) [3] = assay: disc diffusion assay; type: cell-based; details: 0.15 μmol per 6 mm disc
Description: as §1
(§4) The disc diffusion assays against E. coli BL21(DE3) and the defective strain E. coli D22 were performed as follows: liquid cultures of the bacteria were grown overnight in lysogeny broth (LB)[73] at 37 °C and 200 rpm. 150 μL of an overnight cell suspension was spread evenly onto LB agar plates. 0.15 μmol of each compound (dissolved in 10 or 15 μL DMSO) were applied onto circular filter paper (Ø = 6 mm, Cytiva). Pure DMSO, serving as a negative control, and CHIR-090, serving as a positive control, were also spotted. The agar plates were incubated overnight at 37 °C, and the diameter of the zone of growth inhibition was measured for each compound. Each assay was performed at least three times on separate days.

E. coli D22 [4] = assay: disc diffusion assay; type: cell-based; details: 0.15 μmol per 6 mm disc
Description: as §1, §4

[5] = test system: K. pneumoniae ATCC 700603; assay: disc diffusion assay; type: cell-based, Klebsiella pneumoniae; details: 0.15 μmol per 6 mm disc
Description: In the performed disc diffusion assays, indole derivatives (S)-13h, (S)-13i, and (S)-13j caused promising halos of growth inhibition.
The disc diffusion assays against E. coli TOP10 (Thermo Fisher, Waltham, USA), E. coli ATCC 35218, K. pneumoniae ATCC 700603, and P. aeruginosa ATCC 27853 were performed as follows: the bacteria were grown overnight on a Columbia blood agar plate (Oxoid, Basingstoke, UK), and one colony was suspended in sterile saline to yield a suspension of 0.5 McFarland standard. Using a sterile swab, the suspension was spread evenly onto Mueller–Hinton agar (Oxoid, Basingstoke, UK). 0.15 μmol of each compound (dissolved in 10 μL DMSO) was applied onto circular 6 mm diameter filter paper disks, which were then placed on the agar. After incubating the agar plates for 20 h at 37 °C, the diameter of the zone of growth inhibition was measured for each compound.

LasB = target: T2, LasB (Pseudomonas aeruginosa, UniProt Q02RJ6); assay: FRET-based LasB in vitro inhibition assay; type: biochemical, P. aeruginosa PA14; details: for inhibition at 20 µM: read-out: LasB Inhibition at 20 μM
T2 construct: The elastase LasB of P. aeruginosa is a secreted metalloprotease; endogenous in cells; host or cells: P. aeruginosa PA14 culture supernatant
Description: Purification of LasB from P. aeruginosa PA14 supernatant and the subsequent performance of the FRET-based in vitro inhibition assay was performed as described previously.[66] The TACE (ADAM-17) inhibitor screening kit was purchased from Sigma-Aldrich (Saint Louis, MO). MMPs 1–3 along with the SensoLyte 520 Generic MMP Activity Kit Fluorimetric were purchased from AnaSpec (Fremont, CA, USA). The assays were performed according to the guidelines of the respective manufacturer. Fluorescence signals were measured using a CLARIOstar plate reader (BMG Labtech, Ortenberg, Germany).

T2 sequence (Q02RJ6 198-498): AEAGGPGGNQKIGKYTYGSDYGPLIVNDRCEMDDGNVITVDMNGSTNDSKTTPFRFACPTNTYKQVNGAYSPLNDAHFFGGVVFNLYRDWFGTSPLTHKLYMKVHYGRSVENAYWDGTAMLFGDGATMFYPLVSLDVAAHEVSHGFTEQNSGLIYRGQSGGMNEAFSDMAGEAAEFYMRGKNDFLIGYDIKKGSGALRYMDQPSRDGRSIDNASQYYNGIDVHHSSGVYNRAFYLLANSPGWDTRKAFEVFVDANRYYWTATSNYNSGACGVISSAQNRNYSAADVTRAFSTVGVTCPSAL
T1 sequence (P0A725 whole entry C63A): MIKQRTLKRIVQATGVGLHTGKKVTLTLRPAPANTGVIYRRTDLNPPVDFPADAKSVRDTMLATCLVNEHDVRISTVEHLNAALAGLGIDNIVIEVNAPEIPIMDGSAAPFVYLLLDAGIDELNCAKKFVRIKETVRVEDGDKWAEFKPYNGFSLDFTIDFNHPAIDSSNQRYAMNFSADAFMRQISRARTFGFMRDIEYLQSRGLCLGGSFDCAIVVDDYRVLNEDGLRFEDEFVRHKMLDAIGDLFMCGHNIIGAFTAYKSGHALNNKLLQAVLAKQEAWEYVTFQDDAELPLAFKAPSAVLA

For `O=C(NC[C@H](OCc1ccc(C#Cc2ccc(CN3CCOCC3)cc2)cc1)C(=O)NO)c1ccc[nH]1` [(S)-13k], the Ki (E. coli LpxC C63A) was 97.1 ± 9.4 nM, the “MIC E. coli BL21(DE3)” value (E. coli BL21(DE3) [1]) was 4.0 µg/mL (≈ 7.96 µM) and the MIC (E. coli BL21(DE3) [1]) was 4 to 8 µg/mL (≈ 7.96 to 15.9 µM). For the same compound, the MIC (E. coli D22 [2]) was 0.063 µg/mL (≈ 0.125 µM), the “Inhibition zone E. coli BL21(DE3)” value (E. coli BL21(DE3) [3]) was 23.3 ± 0.6 mm and the “Inhibition zone E. coli D22” value (E. coli D22 [4]) was >30 mm. The “Inhibition zone K. pneumoniae ATCC 700603” value [5] was 9.5 ± 0.7 mm and the inhibition at 20 µM (LasB) was 22.4 ± 3.1%.

In the case of `O=C(NC[C@H](OCc1ccc(C#Cc2ccc(CN3CCOCC3)cc2)cc1)C(=O)NO)c1ccc(Oc2ccccc2)cc1` [(S)-13d], the Ki (E. coli LpxC C63A) is reported as 323 ± 126 nM, the MIC (E. coli BL21(DE3) [1]) is reported as > 16 µg/mL and the MIC (E. coli D22 [2]) is reported as 0.25 µg/mL (≈ 0.413 µM). The “Inhibition zone E. coli BL21(DE3)” value (E. coli BL21(DE3) [3]) was ≤6 mm, the “Inhibition zone E. coli D22” value (E. coli D22 [4]) was 9.3 ± 1.6 mm and the “Inhibition zone K. pneumoniae ATCC 700603” value [5] was <6 mm. For the same compound, the “LasB Inhibition at 20 μM” value (LasB) was “little to no inhibitory activity” and the inhibition at 20 µM (LasB) was < 10%.

For `O=C(NC[C@H](OCc1ccc(C#Cc2ccc(CN3CCOCC3)cc2)cc1)C(=O)NO)c1cc2ccccc2[nH]1` [(S)-13g], the Ki (E. coli LpxC C63A) was 87 ± 58.5 nM, the “MIC E. coli BL21(DE3)” value (E. coli BL21(DE3) [1]) was 8.0 µg/mL (≈ 14.5 µM) and the MIC (E. coli BL21(DE3) [1]) was 4 to 8 µg/mL (≈ 7.24 to 14.5 µM). The MIC (E. coli D22 [2]) was 0.063 µg/mL (≈ 0.114 µM), the “Inhibition zone E. coli BL21(DE3)” value (E. coli BL21(DE3) [3]) was 10.0 ± 1.0 mm and the “Inhibition zone E. coli D22” value (E. coli D22 [4]) was 23.0 ± 1.0 mm. The “Inhibition zone K. pneumoniae ATCC 700603” value [5] was <6 mm, the “LasB Inhibition at 20 μM” value (LasB) was “little to no inhibitory activity” and the inhibition at 20 µM (LasB) was < 10%.

With `O=C(NC[C@H](OCc1ccc(C#Cc2ccc(CN3CCOCC3)cc2)cc1)C(=O)NO)c1cc[nH]n1` [(S)-13l] the Ki (E. coli LpxC C63A) was 80.9 ± 9 nM, the “MIC E. coli BL21(DE3)” value (E. coli BL21(DE3) [1]) was 4.0 µg/mL (≈ 7.94 µM) and the MIC (E. coli BL21(DE3) [1]) was 4 to 8 µg/mL (≈ 7.94 to 15.9 µM). The MIC (E. coli D22 [2]) was 0.063 µg/mL (≈ 0.125 µM), the “Inhibition zone E. coli BL21(DE3)” value (E. coli BL21(DE3) [3]) was 24.7 ± 0.6 mm and the “Inhibition zone E. coli D22” value (E. coli D22 [4]) was >30 mm. The “Inhibition zone K. pneumoniae ATCC 700603” value [5] was 11.5 ± 0.7 mm, the “LasB Inhibition at 20 μM” value (LasB) was “little to no inhibitory activity” and the inhibition at 20 µM (LasB) was 11.6 ± 0.7%.

In the case of `O=C(NO)[C@H](CNCc1ccccc1)OCc1ccc(C#Cc2ccc(CN3CCOCC3)cc2)cc1` [(S)-12a, (S)-3-(Benzylamino)-N-hydroxy-2-[(4-{[4-(morpholinomethyl)phenyl]ethynyl}benzyl)oxy]propanamide], the Ki (E. coli LpxC C63A) is reported as 4590 ± 1260 nM, the MIC (E. coli BL21(DE3) [1]) is reported as 16 µg/mL (≈ 32 µM) and the MIC (E. coli D22 [2]) is reported as 0.5 µg/mL (≈ 1 µM). The “Inhibition zone E. coli BL21(DE3)” value (E. coli BL21(DE3) [3]) was 13.0 ± 1.0 mm, the “Inhibition zone E. coli D22” value (E. coli D22 [4]) was 24.3 ± 2.1 mm and the IC50 (LasB) was 21900 ± 1200 nM. For the same compound, the inhibition at 20 µM (LasB) was 57 ± 2%.

`O=C(NC[C@H](OCc1ccc(C#Cc2ccc(CN3CCOCC3)cc2)cc1)C(=O)NO)c1cccc(-c2ccccc2)c1` [(S)-13c] was tested, and the Ki (E. coli LpxC C63A) was 42 nM and 41.5 nM, the MIC (E. coli BL21(DE3) [1]) was > 16 µg/mL and the MIC (E. coli D22 [2]) was 0.13 µg/mL (≈ 0.22 µM). For the same compound, the “Inhibition zone E. coli BL21(DE3)” value (E. coli BL21(DE3) [3]) was ≤6 mm, the “Inhibition zone E. coli D22” value (E. coli D22 [4]) was 19.0 ± 1.5 mm and the “Inhibition zone K. pneumoniae ATCC 700603” value [5] was <6 mm. For the same compound, the “LasB Inhibition at 20 μM” value (LasB) was “little to no inhibitory activity” and the inhibition at 20 µM (LasB) was < 10%.

From paper PMC11472313, “Development of Fragment-Based Inhibitors of the Bacterial Deacetylase LpxC with Low Nanomolar Activity” (Journal of Medicinal Chemistry, 2024)
